From patent US20030124160A1, “Targeted drug delivery” (priority 2001, published 2003)

Legend:
tyrosinase [1] = settings: B16 mouse melanoma cells, 0.5 mM-5 mM free NB-DNJ (ref. [6]); cited from earlier work
[2] = system: B16-F1 mouse melanoma cells; test: Pigmentation of melanoma cells, visual inspection; type: cell-based; settings: 0.5 mM free NB-DNJ, 72 h
Protocol: Cells were treated with for 72 h in the presence and absence of NB-DNJ free or included in liposomes, transferred into a microtiter plate and pelleted by centrifugation.
Tyrosinase is the regulatory enzyme of melanogenesis in melanocytes. Therefore, inactivation of tyrosinase is associated with lack of pigmentation due to the absence of melanin synthesis in specialized cells. To correlate the results on tyrosinase activity, with the melanin content, the pigmentation of the melanoma cells treated With liposomes was observed. […] The lack of pigmentation in melanoma cells treated with minute amounts of liposomal NB-DNJ correlates well with the abolishment of tyrosinase activity as a result of N-glycosylation processing inhibition, reinforcing the efficiency of the cytoplasmic delivery of the drug encapsulated in liposomes.

tyrosinase [3] = test: Tyrosinase activity (DOPA oxidase assay) in lysates of B16-F1 cells cultured with free or liposome-included inhibitor; type: cell-based, mouse; settings: 24 h after washout following 72 h incubation
Protocol: B16-F1 mouse melanoma cells (European Collection of Animal Cell Culture, Porton Down, U.K.) were cultured in RPMI 1640 medium (Life Technologies, Paisley, Scotland, and U.K.) as described in ref. [8]. Cells were incubated with liposomes for 72 h at 37° C. and their viability was determined by using the trypan blue staining test. Following the incubation time, cells were harvested, washed three times with PBS and lysed in 10 mM phosphate buffer, pH 6.8 containing 1% Nonidet P40 and proteinase inhibitors.
Tyrosinase activity was measured by the DOPA oxidase assay that measures the conversion of DOPA to DOPAchrome via DOPA quinone. Briefly, 50 μl of cell lysate was mixed with 950 μl of 1 mM DOPA in 0.1 M sodium phosphate buffer, pH 7.2 at 37° C. and the reaction was followed spectrophotometrically at 475 nm by the chromogenic appearance of DOPAchroine from 1 mM DOPA (ref. [8]).
To investigate the uptake of liposome encapsulated NB-DNJ in living cells,.the activity of tyrosinase was monitored, a constitutively expressed enzyme of melanoma cells, highly sensitive to small variations of the NB-DNJ concentration in the culture medium (ref. [8]). Inhibition of N-glycosylation processing in the presence of NB-DNJ yields a tyrosinase polypeptide caring Glc3Man7-9GlcNAc glycans. […]

## CCCCN1C[C@H](O)[C@@H](O)[C@H](O)[C@H]1CO [NB-DNJ, N-butyldeoxynojirimycin]
Tyrosinase [1]
  tyrosinase activity: dramatic decrease
[2]
  pigmentation: dramatic decrease
Tyrosinase [3]
  recovery of tyrosinase activity: 75%
